Earlier results on 14 compounds are cited in patent US20090148430A1, “HUMAN OBESITY SUSCEPTIBILTY GENE ENCODING POTASSIUM ION CHANNELS AND USES THEREOF” (priority 2004, published 2009).

One series addresses Kv1.5 (Rattus norvegicus, UniProt P19024). The settings on record: independent of effects on PTK activity.
For series [1] the following is noted: intranasal, healthy controls.
Series [2] deals with Kv channel. The settings on record: vascular smooth muscle cells.
In another series the test system is pig Kv1.5. The settings on record: expressed in Xenopus oocytes; read-out: IC(50) block of pig Kv1.5.
For series [3] the following is noted: massively obese child with leptin deficiency mutation.
In series [4] the target is T1, cloned rat brain potassium channel Kv1.1 (Rattus norvegicus, UniProt P10499).
T1 construct: host or cells: Xenopus laevis oocytes
T1 sequence (P10499 whole entry): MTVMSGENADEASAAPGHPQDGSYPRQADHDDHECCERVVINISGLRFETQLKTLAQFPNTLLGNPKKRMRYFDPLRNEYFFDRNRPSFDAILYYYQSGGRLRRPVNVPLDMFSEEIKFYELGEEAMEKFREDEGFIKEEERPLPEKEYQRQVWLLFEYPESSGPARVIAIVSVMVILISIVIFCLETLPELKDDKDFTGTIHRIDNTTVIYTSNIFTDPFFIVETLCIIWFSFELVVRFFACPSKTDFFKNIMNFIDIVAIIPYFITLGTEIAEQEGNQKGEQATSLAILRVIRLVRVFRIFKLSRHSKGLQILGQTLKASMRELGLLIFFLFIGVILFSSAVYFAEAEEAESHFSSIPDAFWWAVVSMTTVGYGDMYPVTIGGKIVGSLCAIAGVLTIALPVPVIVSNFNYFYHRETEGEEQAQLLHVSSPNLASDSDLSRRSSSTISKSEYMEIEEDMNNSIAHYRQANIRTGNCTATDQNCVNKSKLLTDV
The settings on record: Kv1.1, Xenopus laevis oocytes.

Series [5] concerns KV currents including Kv1.1. The settings on record: mammalian neurons, therapeutic levels.
In series [6] the test system is Kv channel. The settings on record: extracellular application, MASMC and intestinal epithelial cells, rats.

Kv1.5, sequence (P19024 whole entry): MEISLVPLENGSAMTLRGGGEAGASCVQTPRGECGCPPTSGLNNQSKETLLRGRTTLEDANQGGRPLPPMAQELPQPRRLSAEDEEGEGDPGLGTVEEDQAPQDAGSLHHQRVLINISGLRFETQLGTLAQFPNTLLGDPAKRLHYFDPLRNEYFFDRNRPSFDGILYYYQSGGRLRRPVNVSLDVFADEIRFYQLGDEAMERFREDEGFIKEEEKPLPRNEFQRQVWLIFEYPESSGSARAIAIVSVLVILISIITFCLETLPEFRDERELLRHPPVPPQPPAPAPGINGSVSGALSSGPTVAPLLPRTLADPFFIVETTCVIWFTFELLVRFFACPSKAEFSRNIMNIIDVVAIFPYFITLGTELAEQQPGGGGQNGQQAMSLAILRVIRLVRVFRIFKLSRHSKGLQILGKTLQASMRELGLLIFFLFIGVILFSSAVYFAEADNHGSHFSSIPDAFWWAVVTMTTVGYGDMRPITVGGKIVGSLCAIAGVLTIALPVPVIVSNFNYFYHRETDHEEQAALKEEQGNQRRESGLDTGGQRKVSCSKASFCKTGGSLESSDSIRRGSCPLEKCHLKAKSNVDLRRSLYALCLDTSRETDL

For the compound alpha-dendrotoxin, in the series on guinea-pig ileum, the peristaltic activity entry is on record as “increases the peristaltic activity” and the “pressure threshold for eliciting peristaltic contractions” value (“pressure threshold” for short) is on record as “immediate reduction”. On to `COc1cc2ncnc(Nc3cccc(Cl)c3)c2cc1OC` [AG-1478], for which the “action on Kv1.5 currents” value at Kv1.5 is given as “open-channel blocker”. For the compound “ACTH4-10: adrenocorticotropin4-10, representing a core sequence of all melanocortins (MEHFRWG; Corticotropin; UniProt P01189 141-147, looked up, fragment)”, in [1], the body fat mass entry was “reduced”, the plasma leptin concentrations result is “reduced” and the weight entry is reported as “reduced”. On to `CCN[C@@H](C)Cc1cccc(C(F)(F)F)c1` [dexenfluramine], for which the Kv channel activity entry with Kv channel [2] was “decrease Kv channel activity”.

As for “Kaliotoxin: a Kv1.1 and Kv1.3 channel blocker”, the associative learning result in the series on rats is recorded as “improves associative learning”.

For `COc1ccc(CC(=O)NCc2ccccc2-c2ccccc2C(=O)NCCc2cccnc2)cc1` [AVE0118], in the series on pig Kv1.5, the IC50 is 5.4 µM. For the compound “recombinant leptin: recombinant leptin used to treat a child with a leptin deficiency mutation”, the treatment outcome in series [3] is “treated successfully”. Take `C1CCc2nnnn2CC1` [PTZ, pentylenetetrazol]: the “effect on potassium currents at more negative potentials” value in series [4] (more negative potentials) was “increased the potassium currents”. Moreover, the “effect on potassium currents at more positive potentials” value in [4] (more positive potentials) is recorded as “decreased them”. On to `CNCCC(Oc1ccc(C(F)(F)F)cc1)c1ccccc1` (centres unmarked) [fluoxetine], for which the “block of KV currents including Kv1.1” value in series [5] was “can occur at therapeutic levels”.

On to “margatoxin (TIINVKCTSPKQCLPPCKAQFGQSAGAKCMNGKCKCYPH; UniProt P40755 1-39, looked up)”, for which, in the series with guinea-pig ileum, the peristaltic activity result is recorded as “increases the peristaltic activity” and the “pressure threshold” value was “immediate reduction”.

For `CCNC(C)Cc1cccc(C(F)(F)F)c1` (centres unmarked) [fenfluramine], the Kv channel activity entry in the series with Kv channel [2] was “decrease Kv channel activity”.

Regarding `C=C1C[C@@]2(O)[C@@H]3CC[C@@]4(C)[C@@H]5C=CC(=O)OC[C@]5(C(C)OC(C)=O)[C@@H](OC(C)=O)[C@@H](OC(C)=O)[C@@H]4[C@@]3(C)[C@H](OC(C)=O)[C@H](OC(C)=O)[C@@]2(C)C2(C(=O)OC)O[C@H]12` (some centres unmarked) [correolide], the “pressure threshold” value in the series on guinea-pig ileum is “progressive and sustained reduction”. With `Nc1ccncc1` [4-aminopyridine], the “effect of K+ channel blockade” value in the series on Kv channel [6] is given as “anorexic effect”. In the case of dendrotoxin-K, in the series with guinea-pig ileum, the peristaltic activity result is “increases the peristaltic activity” and the “pressure threshold” value is “immediate reduction”.
